Tests used:
Test in all cases: relative viability (nuclei count vs DMSO), 5 days (fraction); higher = more cells survive
PC-3 [JPC-3] = system: PC-3 [JPC-3]
How it was run: (§1)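 Relative viability equals treated-well nuclei counts divided by vehicle-well nuclei counts. Counts came from 4× images of lung cancer cell lines grown in 1536-well plates for 5 days after pin-tool dosing on the day after seeding. Dosing used one drug alone or a fixed anchor-drug dose plus five library-drug doses (not always all listed) in √10 steps, and values are medians of duplicate plates.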

CAL-12T = system: CAL-12T
How it was run: as §1

NCI-H2023 = system: NCI-H2023
How it was run: as §1

NCI-H661 = system: NCI-H661
How it was run: as §1

NCI-H2087 = system: NCI-H2087
How it was run: as §1

NCI-H1944 = system: NCI-H1944
How it was run: as §1

NCI-H650 = system: NCI-H650
How it was run: as §1

LCLC-97TM1 = system: LCLC-97TM1
How it was run: as §1

NCI-H1650 = system: NCI-H1650
How it was run: as §1

NCI-H460 = system: NCI-H460
How it was run: as §1

A-427 = system: A-427
How it was run: as §1

Structure (SMILES): Nc1ccn([C@@H]2O[C@H](CO)[C@@H](O)[C@@H]2O)c(=O)n1 [Cytarabine] + CCNC(=O)c1noc(-c2cc(C(C)C)c(O)cc2O)c1-c1ccc(CN2CCOCC2)cc1 [Luminespib] (partner 0.01 µM)
- relative viability (PC-3 [JPC-3]; first compound 0.005 µM): 0.754
- relative viability (PC-3 [JPC-3]; first compound 0.01581 µM): 0.73
- relative viability (PC-3 [JPC-3]; first compound 0.05 µM): 0.782
- relative viability (PC-3 [JPC-3]; first compound 0.1581 µM): 0.453
- relative viability (PC-3 [JPC-3]; first compound 0.5 µM): 0.551
- relative viability (CAL-12T; first compound 0.005 µM): 0.227
- relative viability (CAL-12T; first compound 0.01581 µM): 0.288
- relative viability (CAL-12T; first compound 0.05 µM): 0.64
- relative viability (CAL-12T; first compound 0.1581 µM): 0.217
- relative viability (CAL-12T; first compound 0.5 µM): 0.178
- relative viability (NCI-H2023; first compound 0.005 µM): 0.604
- relative viability (NCI-H2023; first compound 0.01581 µM): 0.235
- relative viability (NCI-H2023; first compound 0.05 µM): 0.19
- relative viability (NCI-H2023; first compound 0.1581 µM): 0.0889
- relative viability (NCI-H2023; first compound 0.5 µM): 0.0897
- relative viability (NCI-H661; first compound 0.005 µM): 0.805
- relative viability (NCI-H661; first compound 0.01581 µM): 0.873
- relative viability (NCI-H661; first compound 0.05 µM): 0.766
- relative viability (NCI-H661; first compound 0.1581 µM): 0.511
- relative viability (NCI-H661; first compound 0.5 µM): 0.37
- relative viability (NCI-H2087; first compound 0.005 µM): 0.151
- relative viability (NCI-H2087; first compound 0.01581 µM): 0.134
- relative viability (NCI-H2087; first compound 0.05 µM): 0.169
- relative viability (NCI-H2087; first compound 0.1581 µM): 0.151
- relative viability (NCI-H2087; first compound 0.5 µM): 0.134
- relative viability (NCI-H1944; first compound 0.005 µM): 0.619
- relative viability (NCI-H1944; first compound 0.01581 µM): 0.343
- relative viability (NCI-H1944; first compound 0.05 µM): 0.264
- relative viability (NCI-H1944; first compound 0.1581 µM): 0.185
- relative viability (NCI-H1944; first compound 0.5 µM): 0.134
- relative viability (NCI-H650; first compound 0.005 µM): 0.606
- relative viability (NCI-H650; first compound 0.01581 µM): 0.485
- relative viability (NCI-H650; first compound 0.05 µM): 0.253
- relative viability (NCI-H650; first compound 0.1581 µM): 0.187
- relative viability (NCI-H650; first compound 0.5 µM): 0.17
- relative viability (LCLC-97TM1; first compound 0.005 µM): 0.742
- relative viability (LCLC-97TM1; first compound 0.01581 µM): 0.69
- relative viability (LCLC-97TM1; first compound 0.05 µM): 0.709
- relative viability (LCLC-97TM1; first compound 0.1581 µM): 0.318
- relative viability (LCLC-97TM1; first compound 0.5 µM): 0.344
- relative viability (NCI-H1650; first compound 0.005 µM): 0.208
- relative viability (NCI-H1650; first compound 0.01581 µM): 0.181
- relative viability (NCI-H1650; first compound 0.05 µM): 0.254
- relative viability (NCI-H1650; first compound 0.1581 µM): 0.218
- relative viability (NCI-H1650; first compound 0.5 µM): 0.209
- relative viability (NCI-H460; first compound 0.005 µM): 0.036
- relative viability (NCI-H460; first compound 0.01581 µM): 0.0332
- relative viability (NCI-H460; first compound 0.05 µM): 0.0248
- relative viability (NCI-H460; first compound 0.1581 µM): 0.0172
- relative viability (NCI-H460; first compound 0.5 µM): 0.0144
- relative viability (A-427; first compound 0.005 µM): 0.708
- relative viability (A-427; first compound 0.01581 µM): 0.425
- relative viability (A-427; first compound 0.05 µM): 0.238
- relative viability (A-427; first compound 0.1581 µM): 0.186
- relative viability (A-427; first compound 0.5 µM): 0.161
